Data as given in PubChem BioAssay (NCI).
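In this assay, cells in 96-well plates receive the compound at five concentrations for 48 hours. Endpoints are linearly interpolated between the surrounding concentrations. The concentration for full growth arrest is given as TGI.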

What was measured:
Assay in all cases: growth of human tumour cells (NCI), 48 h
786-0 renal = tested on: 786-0 renal
A498 renal = tested on: A498 renal
A549 NSCLC = tested on: A549 NSCLC
ACHN renal = tested on: ACHN renal
CAKI-1 renal = tested on: CAKI-1 renal
CCRF-CEM leukemia = tested on: CCRF-CEM leukemia
COLO 205 colon = tested on: COLO 205 colon
DLD-1 colon = tested on: DLD-1 colon
DMS 114 small cell lung = tested on: DMS 114 small cell lung
DMS 273 small cell lung = tested on: DMS 273 small cell lung
EKVX NSCLC = tested on: EKVX NSCLC
HCC-2998 colon = tested on: HCC-2998 colon
HCT-116 colon = tested on: HCT-116 colon
HCT-15 colon = tested on: HCT-15 colon
HL-60(TB) leukemia = tested on: HL-60(TB) leukemia
HOP-18 NSCLC = tested on: HOP-18 NSCLC
HOP-62 NSCLC = tested on: HOP-62 NSCLC
HOP-92 NSCLC = tested on: HOP-92 NSCLC
HT29 colon = tested on: HT29 colon
IGROV1 ovarian = tested on: IGROV1 ovarian
K-562 leukemia = tested on: K-562 leukemia
KM12 colon = tested on: KM12 colon
KM20L2 colon = tested on: KM20L2 colon
LOX IMVI melanoma = tested on: LOX IMVI melanoma
LXFL 529 NSCLC = tested on: LXFL 529 NSCLC
M14 melanoma = tested on: M14 melanoma
M19-MEL melanoma = tested on: M19-MEL melanoma
MALME-3M melanoma = tested on: MALME-3M melanoma
MOLT-4 leukemia = tested on: MOLT-4 leukemia
NCI-H226 lung = tested on: NCI-H226 lung
NCI-H23 lung = tested on: NCI-H23 lung
NCI-H460 lung = tested on: NCI-H460 lung
NCI-H522 lung = tested on: NCI-H522 lung
OVCAR-3 ovarian = tested on: OVCAR-3 ovarian
OVCAR-4 ovarian = tested on: OVCAR-4 ovarian
OVCAR-5 ovarian = tested on: OVCAR-5 ovarian
OVCAR-8 ovarian = tested on: OVCAR-8 ovarian
RPMI-8226 leukemia = tested on: RPMI-8226 leukemia
RXF 393 renal = tested on: RXF 393 renal
RXF-631 renal = tested on: RXF-631 renal
SF-268 CNS = tested on: SF-268 CNS
SF-295 CNS = tested on: SF-295 CNS
SF-539 CNS = tested on: SF-539 CNS
SK-MEL-2 melanoma = tested on: SK-MEL-2 melanoma
SK-MEL-28 melanoma = tested on: SK-MEL-28 melanoma
SK-MEL-5 melanoma = tested on: SK-MEL-5 melanoma
SK-OV-3 ovarian = tested on: SK-OV-3 ovarian
SN12C renal = tested on: SN12C renal
SNB-19 CNS = tested on: SNB-19 CNS
SNB-75 CNS = tested on: SNB-75 CNS
SNB-78 CNS = tested on: SNB-78 CNS
SR leukemia = tested on: SR leukemia
SW-620 colon = tested on: SW-620 colon
TK-10 renal = tested on: TK-10 renal
U251 CNS = tested on: U251 CNS
UACC-257 melanoma = tested on: UACC-257 melanoma
UACC-62 melanoma = tested on: UACC-62 melanoma
UO-31 renal = tested on: UO-31 renal
XF 498 CNS = tested on: XF 498 CNS

O=C1OC(CC(=O)c2ccc(Cl)cc2Cl)C(Cl)=C1Cl (centres undefined)
TGI (786-0 renal): 52.2 µM
TGI (A498 renal): > 100 µM
TGI (A549 NSCLC): > 100 µM
TGI (ACHN renal): > 56.9 µM
TGI (CAKI-1 renal): > 70.3 µM
TGI (CCRF-CEM leukemia): > 72.7 µM
TGI (COLO 205 colon): 52.6 µM
TGI (DLD-1 colon): 54.5 µM
TGI (DMS 114 small cell lung): > 53.1 µM
TGI (DMS 273 small cell lung): > 100 µM
TGI (EKVX NSCLC): > 76.9 µM
TGI (HCC-2998 colon): 29.4 µM
TGI (HCT-116 colon): 32.9 µM
TGI (HCT-15 colon): > 70.6 µM
TGI (HL-60(TB) leukemia): > 75.6 µM
TGI (HOP-18 NSCLC): > 100 µM
TGI (HOP-62 NSCLC): > 100 µM
TGI (HOP-92 NSCLC): 39.7 µM
TGI (HT29 colon): 36 µM
TGI (IGROV1 ovarian): > 69.9 µM
TGI (K-562 leukemia): > 76.7 µM
TGI (KM12 colon): > 100 µM
TGI (KM20L2 colon): 42 µM
TGI (LOX IMVI melanoma): 57.9 µM
TGI (LXFL 529 NSCLC): 32.1 µM
TGI (M14 melanoma): > 91.9 µM
TGI (M19-MEL melanoma): 48.8 µM
TGI (MALME-3M melanoma): 39.2 µM
TGI (MOLT-4 leukemia): 66.7 µM
TGI (NCI-H226 lung): > 89.5 µM
TGI (NCI-H23 lung): > 65.7 µM
TGI (NCI-H460 lung): > 100 µM
TGI (NCI-H522 lung): 34.7 µM
TGI (OVCAR-3 ovarian): > 100 µM
TGI (OVCAR-4 ovarian): > 58.4 µM
TGI (OVCAR-5 ovarian): > 62.8 µM
TGI (OVCAR-8 ovarian): > 60.2 µM
TGI (RPMI-8226 leukemia): > 73 µM
TGI (RXF 393 renal): 36.3 µM
TGI (RXF-631 renal): > 75.5 µM
TGI (SF-268 CNS): 62.7 µM
TGI (SF-295 CNS): > 100 µM
TGI (SF-539 CNS): 44.9 µM
TGI (SK-MEL-2 melanoma): 41.7 µM
TGI (SK-MEL-28 melanoma): 37.2 µM
TGI (SK-MEL-5 melanoma): > 66.3 µM
TGI (SK-OV-3 ovarian): > 63.4 µM
TGI (SN12C renal): > 31.6 µM
TGI (SNB-19 CNS): > 76.6 µM
TGI (SNB-75 CNS): > 61.1 µM
TGI (SNB-78 CNS): > 71.3 µM
TGI (SR leukemia): 70.4 µM
TGI (SW-620 colon): 38.1 µM
TGI (TK-10 renal): > 79 µM
TGI (U251 CNS): > 72.8 µM
TGI (UACC-257 melanoma): > 100 µM
TGI (UACC-62 melanoma): 40 µM
TGI (UO-31 renal): > 56.7 µM
TGI (XF 498 CNS): 45.6 µM
